Assay results reported in patent US8304417B2, “Crystalline forms of 4-(6-chloro-2,3-methylenedioxyanilino)-7-[2-(4-methylpiperazin-1-yl)ethoxy]-5-tetrahydropyran-4-yloxyquinazoline” (AstraZeneca AB, priority 2004, dated 2012).
Entries after “also recorded” stand apart in the source; their conditions may differ.

Tests used:
[1] = Hygroscopicity of the crystalline form (exposure to water vapour); format: physicochemical; details: solid form, exposure to water vapour during storage
[2] = Solid-state form stability (storage, presence or absence of water); format: physicochemical

| Molecule | hygroscopicity [1] | stability of the physical form [2] |
| --- | --- | --- |
| CN1CCN(CCOc2cc(OC3CCOCC3)c3c(Nc4c(Cl)ccc5c4OCO5)ncnc3c2)CC1.O=C(O)/C=C/C(=O)O.O=C(O)/C=C/C(=O)O [AZD0530 difumarate, 4-(6-chloro-2,3-methylenedioxyanilino)-7-[2-(4-methylpiperazin-1-yl)ethoxy]-5-tetrahydropyran-4-yloxyquinazoline difumarate salt] | substantially non-hygroscopic | does not readily change form during storage if exposed to water vapour |
| CN1CCN(CCOc2cc(OC3CCOCC3)c3c(Nc4c(Cl)ccc5c4OCO5)ncnc3c2)CC1.O.O.O [AZD0530 trihydrate, 4-(6-chloro-2,3-methylenedioxyanilino)-7-[2-(4-methylpiperazin-1-yl)ethoxy]-5-tetrahydropyran-4-yloxyquinazoline trihydrate] |  | stable in the presence of water |
| CN1CCN(CCOc2cc(OC3CCOCC3)c3c(Nc4c(Cl)ccc5c4OCO5)ncnc3c2)CC1 [anhydrous AZD0530, 4-(6-chloro-2,3-methylenedioxyanilino)-7-[2-(4-methylpiperazin-1-yl)ethoxy]-5-tetrahydropyran-4-yloxyquinazoline] |  | very stable in the absence of water; also recorded: prone to convert to AZD0530 trihydrate during storage if substantially anhydrous storage conditions are not maintained |
| 4-(6-chloro-2,3-methylenedioxyanilino)-7-[2-(4-methylpiperazin-1-yl)ethoxy]-5-tetrahydropyran-4-yloxyquinazoline sesquifumarate salt [AZD0530 sesquifumarate tetrahydrate] |  | of reasonable stability |
